Test results reported in ChEMBL document CHEMBL1149986, “Topical antiinflammatory dehydroabietylamine derivatives. IV” (Bioorg Med Chem Lett, 1993).

Tests used:
[1] = target: T1, Polyunsaturated fatty acid 5-lipoxygenase (Rattus norvegicus, UniProt P12527); assay: Tested for its inhibitory activity against 5-lipoxygenase
T1 sequence (P12527 whole entry): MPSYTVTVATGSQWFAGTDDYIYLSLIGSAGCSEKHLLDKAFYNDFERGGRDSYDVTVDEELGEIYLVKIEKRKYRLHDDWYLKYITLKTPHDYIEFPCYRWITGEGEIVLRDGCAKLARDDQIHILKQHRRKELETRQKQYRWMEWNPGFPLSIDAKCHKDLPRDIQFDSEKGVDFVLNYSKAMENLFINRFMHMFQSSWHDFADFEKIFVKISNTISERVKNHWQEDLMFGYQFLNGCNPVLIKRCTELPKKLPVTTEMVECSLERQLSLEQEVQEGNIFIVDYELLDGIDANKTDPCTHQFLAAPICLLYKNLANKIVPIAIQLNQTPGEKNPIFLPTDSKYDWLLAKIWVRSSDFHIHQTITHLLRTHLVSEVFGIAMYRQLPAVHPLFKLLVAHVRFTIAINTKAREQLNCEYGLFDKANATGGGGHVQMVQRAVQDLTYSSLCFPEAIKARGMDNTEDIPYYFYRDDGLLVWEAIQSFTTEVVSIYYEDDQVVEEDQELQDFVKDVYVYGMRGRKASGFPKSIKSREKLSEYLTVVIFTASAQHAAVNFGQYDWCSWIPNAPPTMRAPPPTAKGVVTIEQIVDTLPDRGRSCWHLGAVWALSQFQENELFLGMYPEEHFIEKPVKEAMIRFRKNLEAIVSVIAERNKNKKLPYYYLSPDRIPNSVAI

Mus musculus [2] = assay: Tested for its antiinflammatory activity in the contact sensitive (CS) ear edema model; assay type: functional
[3] = target: Phospholipase A2, major isoenzyme (Sus scrofa, UniProt P00592); assay: Tested for its inhibitory activity against Phospholipase A2 (PLA2); parameters: species or system Mus musculus
Chain of Phospholipase A2, major isoenzyme (P00592 whole entry): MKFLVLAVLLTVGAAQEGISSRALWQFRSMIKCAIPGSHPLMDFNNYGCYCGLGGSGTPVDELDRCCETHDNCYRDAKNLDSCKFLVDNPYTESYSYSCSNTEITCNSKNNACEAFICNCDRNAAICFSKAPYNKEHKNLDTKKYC

Mus musculus [4] = assay: Tested for its antiinflammatory activity in the A-23187 (calcium ionophore) ear edema model.; assay type: functional
Mus musculus [5] = assay: Tested for its antiinflammatory activity in the tetradecanoyl phorbol acetate induced ear edema model (TPA Ear); assay type: functional
Cyclooxygenase = target: T2, Cyclooxygenase (Bos taurus, UniProt O62664+O62698); assay: Tested for its inhibitory activity against PGS (prostaglandin synthetase).; assay type: protein assay
T2 sequence (O62664 whole entry): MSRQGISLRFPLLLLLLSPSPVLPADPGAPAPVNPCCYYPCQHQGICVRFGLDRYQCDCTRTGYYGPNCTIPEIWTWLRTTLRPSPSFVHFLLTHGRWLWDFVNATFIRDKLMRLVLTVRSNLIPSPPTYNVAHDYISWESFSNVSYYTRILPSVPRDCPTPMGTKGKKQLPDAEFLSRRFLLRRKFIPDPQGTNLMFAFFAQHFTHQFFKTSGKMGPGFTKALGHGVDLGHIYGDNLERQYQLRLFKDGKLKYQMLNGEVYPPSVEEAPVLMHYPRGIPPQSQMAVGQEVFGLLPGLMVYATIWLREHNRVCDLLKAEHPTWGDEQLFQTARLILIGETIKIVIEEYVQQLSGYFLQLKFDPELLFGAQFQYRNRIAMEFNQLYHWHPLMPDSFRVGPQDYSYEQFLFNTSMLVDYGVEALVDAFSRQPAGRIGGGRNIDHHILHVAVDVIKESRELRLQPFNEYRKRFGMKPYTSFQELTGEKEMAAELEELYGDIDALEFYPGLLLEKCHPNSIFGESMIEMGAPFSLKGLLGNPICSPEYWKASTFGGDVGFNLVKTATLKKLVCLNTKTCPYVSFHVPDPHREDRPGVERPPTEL
T2 sequence (O62698 whole entry): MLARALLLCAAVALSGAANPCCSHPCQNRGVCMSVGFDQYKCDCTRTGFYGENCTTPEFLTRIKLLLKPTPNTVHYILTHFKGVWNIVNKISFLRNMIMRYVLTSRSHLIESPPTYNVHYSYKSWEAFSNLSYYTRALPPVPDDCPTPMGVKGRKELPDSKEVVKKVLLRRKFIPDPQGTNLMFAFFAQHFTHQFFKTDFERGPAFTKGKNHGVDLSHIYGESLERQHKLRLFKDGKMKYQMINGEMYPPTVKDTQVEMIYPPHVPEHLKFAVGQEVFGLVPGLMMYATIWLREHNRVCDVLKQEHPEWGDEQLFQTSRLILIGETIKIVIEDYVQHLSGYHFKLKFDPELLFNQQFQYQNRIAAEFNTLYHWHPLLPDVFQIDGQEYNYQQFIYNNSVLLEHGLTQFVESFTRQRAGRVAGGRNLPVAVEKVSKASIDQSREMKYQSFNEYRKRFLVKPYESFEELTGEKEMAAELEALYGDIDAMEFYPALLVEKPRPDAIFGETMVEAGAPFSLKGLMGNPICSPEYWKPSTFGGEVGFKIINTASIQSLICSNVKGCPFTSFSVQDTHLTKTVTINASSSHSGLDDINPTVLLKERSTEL

Mus musculus [6] = assay: Tested for its antiinflammatory activity in the arachidonic acid(AA) induced ear edema model; assay type: functional

SMILES | IC50 [1] [µM] | ED50 (Mus musculus [2]) [ug ear-1] | IC50 [3] [µM] | ED50 (Mus musculus [4]) [ug ear-1] | ED50 (Mus musculus [5]) [ug ear-1] | IC50 (Cyclooxygenase) [µM] | ED50 (Mus musculus [6]) [ug ear-1]
CC(=O)NC(CCN(C[C@]1(C)CCC[C@]2(C)c3ccc(C(C)C)cc3CCC12)C(C)=O)c1ccc(F)cc1 (stereo partly specified) | > 25 | >100 | 90.5 | 84.7 | 10 | 124 | >100
CC(C)c1ccc2c(c1)CCC1[C@](C)(CNCC3CCCN3)CCC[C@]21C.Cl.Cl (stereo partly specified) |  | 90 | 28 | 200 | 18 | 62 | >100
CC(C)c1ccc2c(c1)CCC1[C@](C)(CNCc3ccccc3C(=O)O)CCC[C@]21C.Cl (stereo partly specified) | > 25 | >100 | 34.5 | 64.1 | 16 | 220 | >100
CC(N)CCCNC[C@]1(C)CCC[C@]2(C)c3ccc(C(C)C)cc3CCC12.Cl.Cl (stereo partly specified) | 1.2 | >100 | 5.4 | >200 | 18.8 | 390 | 100
CC(C)c1ccc2c(c1)CC[C@H]1C(C)(CN)CCC[C@]21C.Cl (stereo partly specified) | 8 | 19.8 | 21 |  | 130.7 | 71 | >100
C[C@@H]1C[C@H]2[C@@H]3CCC4=CC(=O)C=C[C@]4(C)[C@@]3(F)[C@@H](O)C[C@]2(C)[C@@]1(O)C(=O)CO [DEXAMETHASONE] | 120 | 0.7 | > 750 | 0.5 |  |  | >100
COc1ccc2c(c1)c(CC(=O)O)c(C)n2C(=O)c1ccc(Cl)cc1 [INDOMETHACIN] | > 250 |  |  | 254 |  |  | 1000
CCN(CC)CCCC(C)Nc1c2ccc(Cl)cc2nc2ccc(OC)cc12 (stereo unspecified) [QUINACRINE] |  |  | 100 | >100 | >100 | 32.6 | >100
